{"source": "patent US9464064B2", "about": "“HCV helicase inhibitors and methods of use thereof” (University of Kansas, priority 2011, dated 2016)", "key": {"NS3h_2a(JFH1)": {"target": "T1, NS3h_2a(JFH1) (Hepatitis C virus genotype 2a, UniProt Q99IB8)", "T1 construct": "truncated C-terminally His-tagged NS3 proteins lacking the N-terminal protease, called NS3h; His-tag (C); made in house", "T1 sequence (Q99IB8 1196-1661)": "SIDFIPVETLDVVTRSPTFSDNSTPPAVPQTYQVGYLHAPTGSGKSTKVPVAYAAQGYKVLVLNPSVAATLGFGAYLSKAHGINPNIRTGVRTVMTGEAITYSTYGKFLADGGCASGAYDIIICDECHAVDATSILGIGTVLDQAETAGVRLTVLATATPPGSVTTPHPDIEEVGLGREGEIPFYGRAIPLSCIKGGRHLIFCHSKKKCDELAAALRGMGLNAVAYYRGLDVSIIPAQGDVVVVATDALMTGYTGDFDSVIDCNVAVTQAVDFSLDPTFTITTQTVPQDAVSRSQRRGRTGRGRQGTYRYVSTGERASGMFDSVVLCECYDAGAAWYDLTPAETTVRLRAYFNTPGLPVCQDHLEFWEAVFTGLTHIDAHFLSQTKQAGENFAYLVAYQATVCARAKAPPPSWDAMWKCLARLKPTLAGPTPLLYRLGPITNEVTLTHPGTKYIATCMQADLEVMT", "assay": "NS3 intrinsic protein fluorescence titration", "type": "binding, hepatitis C virus genotype 2a(JFH1)", "conditions": "corrected for inner filter effects", "experimental": "Compound effects on NS3 intrinsic protein fluorescence were determined by adding aliquots of each compound (1 μl of a 1 mM solution in DMSO) sequentially to 50, 100, or 200 nM of NS3h_2a(JFH1), or 100 nM scNS4A-NS3 dissolved in 2 ml of 25 mM MOPS pH 7, 1.25 mM MgCl2, 0.01% (v/v) TWEEN 20 and 0.3 mM DTT. The titrations were performed in a stirred, temperature-controlled 1 cm cuvette at 23° C. in a Cary Eclipse Fluorescence Spectrophotometer (Agilent Technologies). Intrinsic protein fluorescence was recorded by exciting the sample at 280 nm and reading emission at 340 nm. Excitation and emission slit widths were set to 5 and 10 nm, respectively. All raw fluorescence data were corrected for sample dilution and inner filter effects using Equation 5: Fc=Fobs(V0+Vi)/V0*10^(Aex+Aem/2) (Equation 5) where Fc is corrected fluorescence, Fobs is observed fluorescence, V0 is initial sample volume, Vi is total volume of titrant added, Aex is the absorbance of the solution at the excitation wavelength (280 nm), and Aem is the absorbance of the solution at the emission wavelength (340 nm). Absorbance was calculated at each point in the titrations from extinction coefficients for each compound in titration buffer, which were calculated at 280 nm and 340 nm using four different compound concentrations. […] Fc=F0−(ΔFmax*[…]/(Kd^n+(C)^n)) (Equation 6) In equation 6, […], F0 is fluorescence in the absence of compound, ΔFmax is the maximum change in fluorescence, n is the Hill coefficient, and C is compound concentration.\nTo examine the direct interaction of the compounds with NS3, the effect of a select few compound on NS3 intrinsic protein fluorescence was analyzed. This technique has been widely used to monitor the interaction of NS3 with its nucleic acid ligands (Lam, et al. (2004) Nucleic Acids Res. 32:4060-4070; Levin & Patel (2002) J. Biol. Chem. 277:29377-29385; Preugschat, et al. (1996) J. Biol. Chem. 271:24449-24457) and other small molecules (Belon, et al. (2010) supra). […] Of note is the fact that, unlike compounds that simply compete for the nucleic acid binding site (e.g., (BIP)2B; Belon, et al. (2010) supra), the primuline derivatives bound NS3h cooperatively as evident from their sigmoid binding isotherms and Hill coefficients greater than one (Equation 6). When compounds were tested against scNS4A-NS3, binding again was detected and apparent affinity for the full-length complex was about 5 times higher than it was for NS3h."}, "scNS4A-NS3": {"target": "scNS4A-NS3 (Hepatitis C virus genotype 1b, UniProt Q9WMX2)", "sequence (Q9WMX2 1027-1657)": "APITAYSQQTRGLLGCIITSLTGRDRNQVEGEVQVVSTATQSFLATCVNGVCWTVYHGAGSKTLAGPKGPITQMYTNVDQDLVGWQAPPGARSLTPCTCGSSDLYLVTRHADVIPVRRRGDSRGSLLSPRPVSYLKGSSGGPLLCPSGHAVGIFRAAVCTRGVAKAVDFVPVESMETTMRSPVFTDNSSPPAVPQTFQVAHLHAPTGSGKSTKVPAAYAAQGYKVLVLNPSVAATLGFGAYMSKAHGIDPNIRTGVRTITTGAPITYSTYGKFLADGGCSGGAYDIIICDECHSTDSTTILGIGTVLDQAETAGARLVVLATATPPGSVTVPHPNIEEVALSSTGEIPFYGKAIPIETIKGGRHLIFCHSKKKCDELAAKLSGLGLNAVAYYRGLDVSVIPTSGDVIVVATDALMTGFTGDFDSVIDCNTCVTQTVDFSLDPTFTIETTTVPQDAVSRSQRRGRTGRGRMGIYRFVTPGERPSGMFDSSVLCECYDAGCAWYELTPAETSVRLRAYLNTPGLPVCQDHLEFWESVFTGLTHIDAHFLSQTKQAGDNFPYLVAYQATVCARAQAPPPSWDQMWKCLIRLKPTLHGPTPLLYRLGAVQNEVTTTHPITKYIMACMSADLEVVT", "assay": "NS3 protease assay (ENZOLYTE 520), full-length", "type": "biochemical, hepatitis C virus genotype 1b(con1)", "parameters": "other: 100 μM, highest concentration tested; other: versus P4; There is also a His tag", "experimental": "All oligonucleotides were purchased from Integrated DNA Technologies (IDT, Coralville, Iowa). Primuline derivatives were synthesized and purified as described herein. Three different NS3 proteins were used in this study. Two were truncated C-terminally His-tagged NS3 proteins lacking the N-terminal protease, called NS3h, the third was a full-length NS3 with the portion of NS4A needed for protease activation fused to its N-terminus, called scNS4A-NS3 (Howe, et al. (1999) Protein Sci. 8:1332-41), and the fourth was a 23 kDa scNS4A-NS3 protease fragment lacking the helicase domains, called scNS4A-NS3p (Protein One, Rockville, Md.). NS3h was expressed from two different HCV strains. NS3h_1b(con1) was from the con1 strain of genotype 1b (GENBANK accession AB114136), and NS3h_2a(JFH1) was from the JFH1 strain of HCV genotype 2a (GENBANK accession AJ238799). […] His-tagged recombinant NS3h_1b(con1), NS3h_2a(JFH1), and scNS4A-NS3 (also from genotype 1b(con1)) were expressed, and purified as previously described (Frick, et al. (2010) supra; Lam, et al. (2003) J. Virol. 77:3950-3961). […]\nAll NS3 protease assays were carried out using the 5-Carboxyfluorescein-labeled substrate from the AnaSpec. […] Assays were carried out in a total volume of 20 μl in black 384-well plates with fluorescence at 520 nm measured using a BMG FLUOstar Omega fluorescence spectrophotometer. […]"}, "NS3h_1b(con1)": {"target": "T2, NS3h_1b(con1) (Hepatitis C virus genotype 1b, UniProt Q9WMX2)", "T2 construct": "truncated C-terminally His-tagged NS3 proteins lacking the N-terminal protease, called NS3h; His-tag (C); made in house", "T2 sequence (Q9WMX2 1192-1657)": "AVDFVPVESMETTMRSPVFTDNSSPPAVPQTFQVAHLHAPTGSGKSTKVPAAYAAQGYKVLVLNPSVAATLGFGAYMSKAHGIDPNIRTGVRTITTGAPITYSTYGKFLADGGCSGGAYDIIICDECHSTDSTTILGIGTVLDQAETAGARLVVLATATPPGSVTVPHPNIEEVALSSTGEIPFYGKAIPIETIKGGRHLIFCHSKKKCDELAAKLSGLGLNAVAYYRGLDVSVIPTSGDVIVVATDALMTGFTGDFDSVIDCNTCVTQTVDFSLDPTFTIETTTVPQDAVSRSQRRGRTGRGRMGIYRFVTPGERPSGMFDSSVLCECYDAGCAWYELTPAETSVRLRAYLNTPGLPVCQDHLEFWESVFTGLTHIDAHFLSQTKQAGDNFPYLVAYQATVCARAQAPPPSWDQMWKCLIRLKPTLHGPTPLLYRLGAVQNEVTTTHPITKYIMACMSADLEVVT", "assay": "ATP hydrolysis assay (malachite green)", "type": "biochemical", "experimental": "A modified “malachite green” assay (Lanzetta, et al. (1979) Anal. Biochem. 100:95-97) was used to measure ATP hydrolysis. Fifty μL reactions contained 25 mM MOPS pH 6.5, 5 mM MgCl2, 2 mM ATP, 5 μg/mL BSA, 0.01% (v/v) TWEEN 20, 0.05 mM DTT, and poly(U) RNA (Saint Louis, Mo.) as indicated. Reactions were initiated by adding NS3h_1b(con1). Reactions were incubated for 15 minutes at 37° C. then stopped by mixing 40 μL of the reaction into 200 μL of the malachite green reagent (3 volumes 0.045% (w/v) malachite green, 1 volume 4.2% ammonium molybdate in 4N HCl, 0.05 volume of 20% TWEEN 20). […] Absorbance at 630 nm was proportional to the concentration of phosphate produced; free phosphate produced was measured against a standard curve."}}, "data": [{"smiles": "Cc1ccc2nc(-c3ccc4nc(-c5ccc(NC(=O)c6ccc(C(F)(F)F)cc6)cc5)sc4c3)sc2c1S(=O)(=O)O", "note": "[Compound 12, 6-methyl-2′-(4-(4-(trifluoromethyl)benzamido)phenyl)-[2,6′-bibenzo[d]thiazole]-7-sulfonic acid]", "values": [{"measurement": "interaction with NS3 (intrinsic protein fluorescence)", "setting": "NS3h_2a(JFH1)", "result": "clear interaction"}]}, {"smiles": "Cc1ccc2nc(-c3ccc4nc(-c5ccc(NC(=O)c6cccc(Cl)c6)cc5)sc4c3)sc2c1S(=O)(=O)O", "note": "[Compound 17, 2′-(4-(3-chlorobenzamido)phenyl)-6-methyl-[2,6′-bibenzo[d]thiazole]-7-sulfonic acid]", "values": [{"measurement": "interaction with NS3 (intrinsic protein fluorescence)", "setting": "NS3h_2a(JFH1)", "result": "clear interaction"}, {"measurement": "times less potent protease inhibitor than compound P4", "setting": "scNS4A-NS3; versus P4", "result": 50, "unit": "times"}]}, {"smiles": "Cc1ccc2nc(-c3ccc4nc(-c5ccc(NC(=O)c6cc(C(F)(F)F)cc(C(F)(F)F)c6)cc5)sc4c3)sc2c1S(=O)(=O)O", "note": "[Compound 24, 2′-(4-(3,5-bis(trifluoromethyl)benzamido)phenyl)-6-methyl-[2,6′-bibenzo[d]thiazole]-7-sulfonic acid]", "values": [{"measurement": "interaction with NS3 (intrinsic protein fluorescence)", "setting": "NS3h_2a(JFH1)", "result": "clear interaction"}]}, {"smiles": "Cc1ccc2nc(-c3ccc4nc(-c5ccc(NC(=O)c6ccc7ccccc7c6)cc5)sc4c3)sc2c1S(=O)(=O)O", "note": "[Compound 33, 2′-(4-(2-naphthamido)phenyl)-6-methyl-[2,6′-bibenzo[d]thiazole]-7-sulfonic acid]", "values": [{"measurement": "interaction with NS3 (intrinsic protein fluorescence)", "setting": "NS3h_2a(JFH1)", "result": "clear interaction"}]}, {"smiles": "Cc1ccc2nc(-c3ccc4nc(-c5ccc(N)cc5)sc4c3)sc2c1S(=O)(=O)O", "note": "[Compound P2a, 2′-(4-aminophenyl)-6-methyl-[2,6′-bibenzo[d]thiazole]-7-sulfonic acid]", "values": [{"measurement": "inhibition at 100 µM", "setting": "scNS4A-NS3; read-out: inhibition of protease", "result": "≤ 50", "unit": "%"}]}, {"smiles": "Cc1ccc2nc(-c3ccc4nc(-c5ccc6nc(-c7ccc(N)cc7)sc6c5)sc4c3)sc2c1S(=O)(=O)O", "note": "[Compound P3, 2″-(4-aminophenyl)-6-methyl-[2,6′:2′,6″-terbenzo[d]thiazole]-7-sulfonic acid]", "values": [{"measurement": "IC50", "setting": "NS3h_1b(con1)", "result": "15 ± 4", "unit": "µM"}]}, {"smiles": "Cc1ccc2nc(-c3ccc4nc(-c5ccc6nc(-c7ccc8nc(-c9ccc(N)cc9)sc8c7)sc6c5)sc4c3)sc2c1S(=O)(=O)O", "note": "[Compound P4, 2′″-(4-aminophenyl)-6-methyl-[2,6′:2″,6′″-quaterbenzo[d]thiazole]-7-sulfonic acid]", "values": [{"measurement": "IC50", "setting": "NS3h_1b(con1)", "result": "5 ± 3", "unit": "µM"}, {"measurement": "effect on NS3 ATP hydrolysis", "setting": "NS3h_1b(con1); presence and absence of RNA", "result": "inhibited ATP hydrolysis both in the presence and absence of RNA"}]}]}
